US11459325B2, “Heterocyclic compound” (Takeda Pharmaceutical Company Limited, priority 2018, dated 2022)

What follows are molecules tested on GBA mutant human fibroblasts GM008760 (assay: Glucosylceramide lowering assay). Details: 10 μM test compound, 4 days culture; GlcCer (C16:0)/Cer (C16:0) molar ratio of test compound group relative to DMSO control group x100; smaller value = glucosylceramide lowering.
Type: cell-based
Summary of the method: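 Fibroblasts with mutant GBA were treated with 10 μM compound for 4 days. Lipids extracted in ethanol/isopropanol with deuterated internal standard; GlcCer (C16:0) and Cer (C16:0) quantified by RapidFire-MS/MS. Value is GlcCer/Cer ratio relative to DMSO control ×100.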

Question: Which “10 μM GlcCer/Cer (% of control)” value does the source give for `Cc1cn(C)c(=O)c2c(C(=O)N3CC4CC4(c4ccc(Cl)cc4)C3)cnn12` (stereo not drawn) [Example 307, 3-((1-(4-chlorophenyl)-3-azabicyclo[3.1.0]hex-3-yl)carbonyl)-5,7-dimethylpyrazolo[1,5-a]pyrazin-4(5H)-one] here?
Answer: The value was 65 % of control.

Question: Which “10 μM GlcCer/Cer (% of control)” value does the source give for `Cc1cn(C)c(=O)c2c(C(=O)N3CC4CC4(c4ccc(OC(F)(F)F)cc4)C3)cnn12` (stereo not drawn) [Example 309, 5,7-dimethyl-3-((1-(4-(trifluoromethoxy)phenyl)-3-azabicyclo[3.1.0]hex-3-yl)carbonyl)pyrazolo[1,5-a]pyrazin-4(5H)-one] here?
Answer: Its value is 44 % of control.

Question: Which “10 μM GlcCer/Cer (% of control)” value does the source give for `Cc1cn(C)c(=O)c2c(C(=O)N3CC4CC4(c4ccc(OC(F)(F)F)cc4)C3)cnn12` (stereo not drawn) [Example 310, 5,7-dimethyl-3-((1-(4-(trifluoromethoxy)phenyl)-3-azabicyclo[3.1.0]hex-3-yl)carbonyl)pyrazolo[1,5-a]pyrazin-4(5H)-one] here?
Answer: Its value is 68 % of control.

Same assay, conditions: Homo sapiens, Fibroblast, 96 h; 10 μM test compound, 4 days culture; GlcCer (C16:0)/Cer (C16:0) molar ratio of test compound group relative to DMSO control group x100; smaller value = glucosylceramide lowering

Question: With `COc1ccccc1-n1cc(C)n2ncc(C(=O)Nc3ccc(N4CCOCC4)cc3)c2c1=O` [Example 311, 5-(2-methoxyphenyl)-7-methyl-N-(4-(morpholin-4-yl)phenyl)-4-oxo-4,5-dihydropyrazolo[1,5-a]pyrazine-3-carboxamide] as the molecule, how does the activity at 10 µM read?
Answer: Its activity at 10 µM is 54%.

Question: For `Cc1cn(C)c(=O)c2c(C(=O)N3CCC(Oc4ccc(C(F)(F)F)cc4)CC3)cnn12` [Example 313, 5,7-dimethyl-3-((4-(4-(trifluoromethyl)phenoxy)piperidin-1-yl)carbonyl)pyrazolo[1,5-a]pyrazin-4(5H)-one], which activity at 10 µM is on record?
Answer: Its activity at 10 µM is 52%.

Question: Which activity at 10 µM does the source give for `Cc1cn(CC#N)c(=O)c2c(C(=O)N3CCC(Oc4ccc(Cl)cc4)CC3)cnn12` [Example 330, {3-[4-(4-chlorophenoxy)piperidine-1-carbonyl]-7-methyl-4-oxopyrazolo[1,5-a]pyrazin-5(4H)-yl}acetonitrile] here?
Answer: Its activity at 10 µM is 68%.

Question: For `Cc1cn(-c2ccccc2OCC(F)(F)F)c(=O)c2c(C(=O)Nc3ccc(N4CCOCC4)cc3)cnn12` [Example 334, 7-methyl-N-[4-(morpholin-4-yl)phenyl]-4-oxo-5-[2-(2,2,2-trifluoroethoxy)phenyl]-4,5-dihydropyrazolo[1,5-a]pyrazine-3-carboxamide], which activity at 10 µM is on record?
Answer: The activity at 10 µM was 27%.

Question: For `Cc1cn(-c2ccccc2OCC(F)(F)F)c(=O)c2c(C(=O)N3CCC(Oc4ccc(Cl)cc4)CC3)cnn12` [Example 335, 3-[4-(4-chlorophenoxy)piperidine-1-carbonyl]-7-methyl-5-[2-(2,2,2-trifluoroethoxy)phenyl]pyrazolo[1,5-a]pyrazin-4(5H)-one], which activity at 10 µM is on record?
Answer: Its activity at 10 µM is 68%.

Question: With `Cc1cn(-c2ccc(F)cc2OCC(F)(F)F)c(=O)c2c(C(=O)Nc3ccc(N4CCOCC4)cc3)cnn12` [Example 336, 5-[4-fluoro-2-(2,2,2-trifluoroethoxy)phenyl]-7-methyl-N-[4-(morpholin-4-yl)phenyl]-4-oxo-4,5-dihydropyrazolo[1,5-a]pyrazine-3-carboxamide] as the molecule, how does the activity at 10 µM read?
Answer: Its activity at 10 µM is 42%.

Question: With `Cc1cn(-c2ccccc2OCC(F)(F)F)c(=O)c2c(C(=O)Nc3ccc(OCC(F)(F)F)nc3)cnn12` [Example 337, 7-methyl-4-oxo-5-[2-(2,2,2-trifluoroethoxy)phenyl]-N-[6-(2,2,2-trifluoroethoxy)pyridin-3-yl]-4,5-dihydropyrazolo[1,5-a]pyrazine-3-carboxamide] as the molecule, how does the activity at 10 µM read?
Answer: The activity at 10 µM was 37%.

Question: How did the activity at 10 µM turn out when `Cc1cn(-c2ccccc2OCC(F)(F)F)c(=O)c2c(C(=O)Nc3ccc(OC(F)F)nc3)cnn12` [Example 338, N-[6-(difluoromethoxy)pyridin-3-yl]-7-methyl-4-oxo-5-[2-(2,2,2-trifluoroethoxy)phenyl]-4,5-dihydropyrazolo[1,5-a]pyrazine-3-carboxamide] was run?
Answer: Its activity at 10 µM is 40%.

Question: For `CCCCO[C@H]1CC[C@H](NC(=O)c2cnn3c(C)cn(-c4ccccc4OCC(F)(F)F)c(=O)c23)CC1` [Example 339, N-[trans-4-butoxycyclohexyl]-7-methyl-4-oxo-5-[2-(2,2,2-trifluoroethoxy)phenyl]-4,5-dihydropyrazolo[1,5-a]pyrazine-3-carboxamide], which activity at 10 µM is on record?
Answer: Its activity at 10 µM is 30%.

Question: `Cc1cn(-c2ccccc2OCC(F)(F)F)c(=O)c2c(C(=O)Nc3ccc(C(C)(C)O)cc3)cnn12` [Example 340, N-[4-(2-hydroxypropan-2-yl)phenyl]-7-methyl-4-oxo-5-[2-(2,2,2-trifluoroethoxy)phenyl]-4,5-dihydropyrazolo[1,5-a]pyrazine-3-carboxamide] was tested. Which activity at 10 µM did it give?
Answer: Its activity at 10 µM is 33%.

Question: `Cc1cn(-c2ccccc2OCC(F)(F)F)c(=O)c2c(C(=O)Nc3ccc(C4CC4)nc3)cnn12` [Example 341, N-(6-cyclopropylpyridin-3-yl)-7-methyl-4-oxo-5-[2-(2,2,2-trifluoroethoxy)phenyl]-4,5-dihydropyrazolo[1,5-a]pyrazine-3-carboxamide] was tested. Which activity at 10 µM did it give?
Answer: Its activity at 10 µM is 32%.

Question: For `Cc1cn(-c2ccccc2OCC(F)(F)F)c(=O)c2c(C(=O)Nc3ccc(C#N)nc3)cnn12` [Example 342, N-(6-cyanopyridin-3-yl)-7-methyl-4-oxo-5-[2-(2,2,2-trifluoroethoxy)phenyl]-4,5-dihydropyrazolo[1,5-a]pyrazine-3-carboxamide], which activity at 10 µM is on record?
Answer: The activity at 10 µM was 28%.

Question: With `Cc1cn(-c2ccccc2OCC(F)(F)F)c(=O)c2c(C(=O)Nc3ccc(C#N)cn3)cnn12` [Example 343, N-(5-cyanopyridin-2-yl)-7-methyl-4-oxo-5-[2-(2,2,2-trifluoroethoxy)phenyl]-4,5-dihydropyrazolo[1,5-a]pyrazine-3-carboxamide] as the molecule, how does the activity at 10 µM read?
Answer: The activity at 10 µM was 23%.

Question: With `Cc1cn(C)c(=O)n2c(C(=O)NC(C)(C)c3ccc(Cl)cc3)cnc12` [Example 347, N-[2-(4-chlorophenyl)propan-2-yl]-6,8-dimethyl-5-oxo-5,6-dihydroimidazo[1,2-c]pyrimidine-3-carboxamide] as the molecule, how does the activity at 10 µM read?
Answer: Its activity at 10 µM is 44%.

Question: `COc1ccccc1-n1cc(C)c2ncc(C(=O)Nc3ccc(N4CCOCC4)cc3)n2c1=O` [Example 350, 6-(2-methoxyphenyl)-8-methyl-N-[4-(morpholin-4-yl)phenyl]-5-oxo-5,6-dihydroimidazo[1,2-c]pyrimidine-3-carboxamide] was tested. Which activity at 10 µM did it give?
Answer: Its activity at 10 µM is 54%.
